Assay results from patent US11840686B2, “Modulation of prekallikrein (PKK) expression” (Ionis Pharmaceuticals, Inc., priority 2013, dated 2023).
Strand notation (5' to 3'): a small letter for the sugar, then the base; units joined by * are phosphorothioate-linked, units joined directly phosphodiester-linked; [ ] holds rarer units or linkages, { } end groups; capitals alone tell only the bases. e = 2'-O-(2-methoxyethyl) (MOE); [5mC] = 5-methylcytosine; d = 2'-deoxy (DNA)

Experiments:
[1] = system: human PKK mRNA; assay: Antisense inhibition of human PKK mRNA in HepaRG cells, 5,000 nM (Example 2); type: cell-based
Outline: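 Chimeric MOE gapmers with full phosphorothioate backbones were tested once at 5,000 nM in electroporated HepaRG cells. After about 24 hours, quantitative PCR measured PKK mRNA relative to untreated control cells.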

[2] = system: human PKK mRNA; assay: Dose-dependent antisense inhibition of human PKK in HepaRG cells, 0.19-5.00 uM (Example 5); type: cell-based; details: for percent inhibition of PKK mRNA, 0.19 μM: 0.19 μM antisense oligonucleotide; for percent inhibition of PKK mRNA, 0.56 μM: 0.56 μM antisense oligonucleotide; for percent inhibition of PKK mRNA, 1.67 μM: 1.67 μM antisense oligonucleotide; for percent inhibition of PKK mRNA, 5.00 μM: 5.00 μM antisense oligonucleotide
Experimental: Cells were plated at a density of 20,000 cells per well and transfected using electroporation with 0.19 μM, 0.56 μM, 1.67 μM, and 5.00 μM concentrations of antisense oligonucleotide. After a treatment period of approximately 16 hours, RNA was isolated from the cells and PKK mRNA levels were measured by quantitative real-time PCR. Human PKK primer probe set RTS3454 was used to measure mRNA levels. PKK mRNA levels were adjusted according to total RNA content, as measured by RIBOGREEN®. The antisense oligonucleotides were tested in a series of experiments that had similar culture conditions.
The half maximal inhibitory concentration (IC50) of each oligonucleotide is also presented.

[3] = HepaRG cells, electroporation with 5,000 nM antisense oligonucleotide, approximately 24 hours, PKK mRNA by RT-PCR (RTS3454), relative to untreated control cells, Table 6 experiment
[4] = HepaRG cells, electroporation, approximately 16 hours, Table 35
[5] = 4 point dose response, HepaRG cells, Table 35
[6] = HepaRG cells, electroporation, approximately 16 hours, Table 40
[7] = Table 13, human PKK mRNA in HepaRG cells, 5-10-5 gapmers
[8] = Table 34, HepaRG, electroporation, ~16 h
[9] = Table 8, HepaRG cells, electroporation with 5,000 nM antisense oligonucleotide, approx. 24 hours, PKK mRNA by RT-PCR (RTS3454), relative to untreated control cells
[10] = HepaRG cells, electroporation, approximately 16 hours, Table 38
[11] = HepaRG cells, electroporation, approximately 16 hours, Table 37

546190 (antisense e[5mC]*eT*e[5mC]*eT*e[5mC]*dA*dT*dA*dT*d[5mC]*dA*dA*d[5mC]*dT*d[5mC]*e[5mC]*eT*eT*eT*eA) [compound 546190]
% inhibition [1, 3]: 92% | percent inhibition of PKK at 0.19 μM [2, 4]: 33% | percent inhibition of PKK at 0.56 μM [2, 4]: 65% | percent inhibition of PKK at 1.67 μM [2, 4]: 86% | IC50 [2, 5]: 0.4 µM | percent inhibition of PKK mRNA, 0.19 μM ([2]; HepaRG cells): 21% | percent inhibition of PKK mRNA, 0.56 μM ([2]; HepaRG cells): 34% | percent inhibition of PKK mRNA, 1.67 μM ([2]; HepaRG cells): 76% | percent inhibition of PKK mRNA, 5.00 μM ([2]; HepaRG cells): 98% | IC50 ([2]; HepaRG cells, 0.19-5.00 μM): 0.7 µM

547335 (antisense eT*eT*eA*eT*eA*dA*dA*dT*dG*dT*d[5mC]*dT*d[5mC]*dG*dA*eT*eG*eG*e[5mC]*eA) [compound 547335]
% inhibition [1, 3]: 93% | percent inhibition of PKK at 0.19 μM [2, 4]: 8% | percent inhibition of PKK at 0.56 μM [2, 4]: 52% | percent inhibition of PKK at 1.67 μM [2, 4]: 85% | percent inhibition of PKK at 5.00 μM [2, 4]: 92% | IC50 [2, 5]: 0.7 µM | percent inhibition of PKK mRNA, 0.19 μM ([2]; HepaRG cells): 0% | percent inhibition of PKK mRNA, 0.56 μM ([2]; HepaRG cells): 13% | percent inhibition of PKK mRNA, 1.67 μM ([2]; HepaRG cells): 73% | percent inhibition of PKK mRNA, 5.00 μM ([2]; HepaRG cells): 95% | IC50 ([2]; HepaRG cells, 0.19-5.00 μM): 1.3 µM

547728 (eG*eA*eG*eA*eT*dT*dG*dG*dT*dG*dG*dT*dG*dG*dG*eT*eG*eG*e[5mC]*eA; antisense) [compound 547728]
% inhibition ([1]; HepaRG cells, 5,000 nM antisense oligonucleotide, 5-10-5 gapmers, Table 17): 88% | percent inhibition of PKK at 0.19 μM [2, 6]: 0% | percent inhibition of PKK at 0.56 μM [2, 6]: 2% | percent inhibition of PKK at 1.67 μM [2, 6]: 16% | percent inhibition of PKK at 5.00 μM [2, 6]: 61% | IC50 ([2]; 4 point dose response, HepaRG cells, Table 40): 4.4 µM

547564 (e[5mC]*e[5mC]*e[5mC]*eT*e[5mC]*dT*dG*dT*d[5mC]*dT*dT*dA*dG*dA*dT*eG*eT*e[5mC]*e[5mC]*eA; antisense) [compound 547564]
% inhibition [1, 7]: 94% | percent inhibition of PKK at 5.00 μM ([2]; HepaRG cells, electroporation, approximately 16 hours, Table 41): 97% | percent inhibition of PKK at 0.19 0μM ([2]; 0.19 0μM, HepaRG cells, electroporation, approximately 16 hours, Table 41): 46% | percent inhibition of PKK at 0.56 0μM ([2]; 0.56 0μM, HepaRG cells, electroporation, approximately 16 hours, Table 41): 66% | percent inhibition of PKK at 1.67 1μM ([2]; 1.67 1μM, HepaRG cells, electroporation, approximately 16 hours, Table 41): 90% | IC50 ([2]; 4 point dose response, HepaRG cells, Table 41): 0.2 µM | percent inhibition of PKK at 0.19 μM [2, 8]: 51% | percent inhibition of PKK at 0.56 μM [2, 8]: 48% | percent inhibition of PKK at 1.67 μM [2, 8]: 82% | percent inhibition of PKK at 5.00 μM [2, 8]: 90% | IC50 ([2]; Table 34, PKK mRNA, HepaRG, electroporation, ~16 h): 0.2 µM

546287 (antisense eG*eT*eT*eG*eT*d[5mC]*d[5mC]*d[5mC]*d[5mC]*dA*dG*dT*dG*dT*dT*eA*e[5mC]*eA*e[5mC]*eA) [compound 546287]
% inhibition [1, 9]: 82% | percent inhibition of PKK at 0.19 μM [2, 10]: 0% | percent inhibition of PKK at 0.56 μM [2, 10]: 15% | percent inhibition of PKK at 1.67 μM [2, 10]: 39% | percent inhibition of PKK at 5.00 μM [2, 10]: 89% | IC50 ([2]; 4 point dose response, HepaRG cells, Table 38): 1.7 µM

546739 (eA*eT*eT*e[5mC]*eG*dG*dT*dG*dT*d[5mC]*dT*dT*dT*dA*d[5mC]*eT*eG*eG*e[5mC]*eT; antisense) [compound 546739]
% inhibition [1, 7]: 89% | percent inhibition of PKK at 0.19 μM [2, 11]: 35% | percent inhibition of PKK at 0.56 μM [2, 11]: 55% | percent inhibition of PKK at 1.67 μM [2, 11]: 57% | percent inhibition of PKK at 5.00 μM [2, 11]: 79% | IC50 ([2]; 4 point dose response, HepaRG cells, Table 37): 0.6 µM | percent inhibition of PKK mRNA, 0.19 μM ([2]; HepaRG cells): 4% | percent inhibition of PKK mRNA, 0.56 μM ([2]; HepaRG cells): 62% | percent inhibition of PKK mRNA, 1.67 μM ([2]; HepaRG cells): 84% | percent inhibition of PKK mRNA, 5.00 μM ([2]; HepaRG cells): 86% | IC50 ([2]; HepaRG cells, 0.19-5.00 μM): 0.6 µM

546255 (e[5mC]*eT*eT*eT*eG*dT*dG*d[5mC]*dA*dA*dG*dT*d[5mC]*dT*d[5mC]*eT*eT*eG*eG*e[5mC]; antisense) [compound 546255]
% inhibition [1, 9]: 92% | percent inhibition of PKK at 0.19 μM [2, 4]: 32% | percent inhibition of PKK at 0.56 μM [2, 4]: 35% | percent inhibition of PKK at 1.67 μM [2, 4]: 78% | percent inhibition of PKK at 5.00 μM [2, 4]: 87% | IC50 [2, 5]: 0.5 µM | percent inhibition of PKK mRNA, 0.19 μM ([2]; HepaRG cells): 5% | percent inhibition of PKK mRNA, 0.56 μM ([2]; HepaRG cells): 39% | percent inhibition of PKK mRNA, 1.67 μM ([2]; HepaRG cells): 82% | percent inhibition of PKK mRNA, 5.00 μM ([2]; HepaRG cells): 96% | IC50 ([2]; HepaRG cells, 0.19-5.00 μM): 0.8 µM
